Source: paper PMC8222254, “Self-assembly of an anion receptor with metal-dependent kinase inhibition and potent in vitro anti-cancer properties” (Nature Communications, 2021)
Where “and” joins values, the source holds several entries; their conditions need not be identical. Equal entries are not always repeated.

Columns and labels:
Assay in all cases: Kinase inhibition screen, cell-free 33P ATP assay at 10 μM
Format in all cases: biochemical
[1] = biological target: 140 purified human kinases (Homo sapiens, UniProt P07947)
Method in brief: (§1)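 Each complex tested in duplicate at 10 μM; cell-free radiometric assay using ^33P ATP on purified enzymes. Hits mapped by HGNC symbol onto the kinome tree.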

[2] = biological target: 140 purified human kinases (Homo sapiens, UniProt P27361)
Method in brief: as §1

[3] = biological target: 140 purified human kinases (Homo sapiens, UniProt P31749); details: PKBa
Method in brief: as §1

[4] = biological target: 140 purified human kinases (Homo sapiens, UniProt P53350); details: for % Activity Run 1 / % Activity Run 2: 10 µM
Method in brief: as §1

[5] = biological target: 140 purified human kinases (Homo sapiens, UniProt P53779)
Method in brief: as §1

[6] = biological target: T1, 140 purified human kinases (Homo sapiens, UniProt Q99683)
T1 sequence (Q99683 1-1374): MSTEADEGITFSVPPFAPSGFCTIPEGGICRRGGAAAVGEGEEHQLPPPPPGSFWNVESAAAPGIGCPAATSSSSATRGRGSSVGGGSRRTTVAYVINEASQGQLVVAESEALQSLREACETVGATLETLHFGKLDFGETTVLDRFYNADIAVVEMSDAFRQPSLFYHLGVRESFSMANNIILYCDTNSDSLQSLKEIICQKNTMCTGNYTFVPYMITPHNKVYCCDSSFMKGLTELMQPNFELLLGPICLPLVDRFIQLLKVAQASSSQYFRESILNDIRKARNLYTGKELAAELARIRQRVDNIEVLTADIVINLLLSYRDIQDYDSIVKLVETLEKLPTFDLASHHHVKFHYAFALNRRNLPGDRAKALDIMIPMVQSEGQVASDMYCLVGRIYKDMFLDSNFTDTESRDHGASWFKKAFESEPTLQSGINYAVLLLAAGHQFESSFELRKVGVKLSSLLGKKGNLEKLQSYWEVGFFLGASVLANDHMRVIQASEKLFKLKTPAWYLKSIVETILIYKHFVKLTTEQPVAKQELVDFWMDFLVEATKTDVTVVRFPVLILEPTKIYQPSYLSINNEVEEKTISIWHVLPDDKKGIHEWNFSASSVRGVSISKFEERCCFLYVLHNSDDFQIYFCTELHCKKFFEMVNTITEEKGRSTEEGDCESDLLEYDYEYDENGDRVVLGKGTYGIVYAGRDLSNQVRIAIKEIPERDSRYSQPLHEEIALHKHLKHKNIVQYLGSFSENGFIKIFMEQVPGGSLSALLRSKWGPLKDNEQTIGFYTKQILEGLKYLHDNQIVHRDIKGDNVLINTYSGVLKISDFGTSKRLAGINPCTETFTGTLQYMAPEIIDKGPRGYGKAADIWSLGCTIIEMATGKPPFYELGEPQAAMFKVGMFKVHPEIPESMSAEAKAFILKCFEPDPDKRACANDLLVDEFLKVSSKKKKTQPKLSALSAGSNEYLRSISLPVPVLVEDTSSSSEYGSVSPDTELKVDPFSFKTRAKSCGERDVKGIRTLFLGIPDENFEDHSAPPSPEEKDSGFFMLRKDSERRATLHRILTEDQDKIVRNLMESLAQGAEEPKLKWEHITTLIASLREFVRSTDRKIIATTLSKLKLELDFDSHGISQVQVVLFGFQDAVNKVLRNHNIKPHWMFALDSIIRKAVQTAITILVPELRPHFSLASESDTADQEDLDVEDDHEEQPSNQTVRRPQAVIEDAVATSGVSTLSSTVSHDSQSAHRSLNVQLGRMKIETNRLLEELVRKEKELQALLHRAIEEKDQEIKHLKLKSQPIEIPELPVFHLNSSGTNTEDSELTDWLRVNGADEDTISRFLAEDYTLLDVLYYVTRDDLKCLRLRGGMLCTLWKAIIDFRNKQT
Method in brief: as §1

[7] = biological target: T2, 140 purified human kinases (Tribolium castaneum, UniProt D6WMX4); details: PINK
T2 sequence (D6WMX4 6-570): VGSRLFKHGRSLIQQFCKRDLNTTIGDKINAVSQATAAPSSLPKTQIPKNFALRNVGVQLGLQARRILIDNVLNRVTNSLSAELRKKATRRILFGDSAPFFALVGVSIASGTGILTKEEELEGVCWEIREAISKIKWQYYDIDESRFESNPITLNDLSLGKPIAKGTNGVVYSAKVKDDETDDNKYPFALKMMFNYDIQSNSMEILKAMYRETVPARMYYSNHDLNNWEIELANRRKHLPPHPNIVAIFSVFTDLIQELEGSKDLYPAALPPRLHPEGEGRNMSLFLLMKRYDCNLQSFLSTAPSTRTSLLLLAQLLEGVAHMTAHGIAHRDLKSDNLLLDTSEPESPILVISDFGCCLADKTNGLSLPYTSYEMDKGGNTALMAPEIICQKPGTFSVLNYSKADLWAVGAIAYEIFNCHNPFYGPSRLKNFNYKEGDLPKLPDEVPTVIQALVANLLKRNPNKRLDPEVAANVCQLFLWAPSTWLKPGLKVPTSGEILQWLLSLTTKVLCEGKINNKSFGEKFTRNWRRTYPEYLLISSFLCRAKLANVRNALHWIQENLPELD
Method in brief: as §1

Chain of 140 purified human kinases (Homo sapiens, UniProt P53779) (P53779 whole entry): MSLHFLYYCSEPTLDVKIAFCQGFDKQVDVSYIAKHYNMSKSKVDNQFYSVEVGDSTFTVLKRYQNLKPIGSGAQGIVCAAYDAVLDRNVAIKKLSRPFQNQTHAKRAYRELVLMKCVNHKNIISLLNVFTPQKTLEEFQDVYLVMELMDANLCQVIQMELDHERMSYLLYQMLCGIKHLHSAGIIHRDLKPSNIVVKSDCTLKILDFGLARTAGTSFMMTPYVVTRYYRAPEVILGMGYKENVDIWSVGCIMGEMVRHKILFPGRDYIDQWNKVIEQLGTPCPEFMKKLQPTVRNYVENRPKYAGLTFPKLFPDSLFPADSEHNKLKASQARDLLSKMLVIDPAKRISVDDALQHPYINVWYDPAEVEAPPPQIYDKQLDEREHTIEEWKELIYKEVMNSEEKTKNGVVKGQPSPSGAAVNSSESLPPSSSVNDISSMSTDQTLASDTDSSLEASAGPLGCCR
Chain of 140 purified human kinases (Homo sapiens, UniProt P27361) (P27361 whole entry): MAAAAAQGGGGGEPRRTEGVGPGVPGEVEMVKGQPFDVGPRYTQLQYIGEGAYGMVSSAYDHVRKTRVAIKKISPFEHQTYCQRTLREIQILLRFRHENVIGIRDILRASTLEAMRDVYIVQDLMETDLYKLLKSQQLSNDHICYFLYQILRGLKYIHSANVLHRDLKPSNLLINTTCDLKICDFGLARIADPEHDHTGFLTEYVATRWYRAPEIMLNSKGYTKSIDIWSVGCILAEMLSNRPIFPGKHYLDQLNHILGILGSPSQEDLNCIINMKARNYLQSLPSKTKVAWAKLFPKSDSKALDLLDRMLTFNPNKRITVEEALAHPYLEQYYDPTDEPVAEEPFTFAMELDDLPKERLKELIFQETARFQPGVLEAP
Chain of 140 purified human kinases (Homo sapiens, UniProt P31749) (P31749 whole entry): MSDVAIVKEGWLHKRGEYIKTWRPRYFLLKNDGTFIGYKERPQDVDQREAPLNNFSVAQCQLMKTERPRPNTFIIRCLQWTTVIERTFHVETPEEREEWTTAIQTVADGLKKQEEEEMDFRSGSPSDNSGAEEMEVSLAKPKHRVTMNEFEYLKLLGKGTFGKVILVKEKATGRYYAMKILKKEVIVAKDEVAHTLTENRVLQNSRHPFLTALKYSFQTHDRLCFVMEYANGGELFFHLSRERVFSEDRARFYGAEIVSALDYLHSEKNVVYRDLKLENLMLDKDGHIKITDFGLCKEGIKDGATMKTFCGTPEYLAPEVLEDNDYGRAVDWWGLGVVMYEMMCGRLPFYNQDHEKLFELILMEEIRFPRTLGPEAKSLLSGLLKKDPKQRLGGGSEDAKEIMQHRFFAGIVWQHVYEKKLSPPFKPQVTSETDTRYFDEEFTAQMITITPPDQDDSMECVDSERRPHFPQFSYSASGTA
Chain of 140 purified human kinases (Homo sapiens, UniProt P53350) (P53350 whole entry): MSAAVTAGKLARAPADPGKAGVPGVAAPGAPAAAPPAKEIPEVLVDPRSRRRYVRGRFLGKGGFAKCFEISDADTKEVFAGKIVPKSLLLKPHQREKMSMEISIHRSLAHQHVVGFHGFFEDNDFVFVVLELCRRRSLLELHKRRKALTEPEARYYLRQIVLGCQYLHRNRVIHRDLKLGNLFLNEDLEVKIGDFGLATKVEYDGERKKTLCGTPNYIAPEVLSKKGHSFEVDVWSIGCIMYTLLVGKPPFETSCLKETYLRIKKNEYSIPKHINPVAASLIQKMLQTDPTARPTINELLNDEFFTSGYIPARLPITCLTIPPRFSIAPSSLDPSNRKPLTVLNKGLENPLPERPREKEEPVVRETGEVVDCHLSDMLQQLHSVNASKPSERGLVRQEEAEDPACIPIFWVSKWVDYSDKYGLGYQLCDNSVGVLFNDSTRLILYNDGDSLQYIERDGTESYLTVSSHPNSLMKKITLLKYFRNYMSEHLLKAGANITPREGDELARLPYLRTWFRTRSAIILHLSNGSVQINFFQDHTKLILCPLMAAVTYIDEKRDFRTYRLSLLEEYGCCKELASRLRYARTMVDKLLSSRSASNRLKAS
Chain of 140 purified human kinases (Homo sapiens, UniProt P07947) (P07947 whole entry): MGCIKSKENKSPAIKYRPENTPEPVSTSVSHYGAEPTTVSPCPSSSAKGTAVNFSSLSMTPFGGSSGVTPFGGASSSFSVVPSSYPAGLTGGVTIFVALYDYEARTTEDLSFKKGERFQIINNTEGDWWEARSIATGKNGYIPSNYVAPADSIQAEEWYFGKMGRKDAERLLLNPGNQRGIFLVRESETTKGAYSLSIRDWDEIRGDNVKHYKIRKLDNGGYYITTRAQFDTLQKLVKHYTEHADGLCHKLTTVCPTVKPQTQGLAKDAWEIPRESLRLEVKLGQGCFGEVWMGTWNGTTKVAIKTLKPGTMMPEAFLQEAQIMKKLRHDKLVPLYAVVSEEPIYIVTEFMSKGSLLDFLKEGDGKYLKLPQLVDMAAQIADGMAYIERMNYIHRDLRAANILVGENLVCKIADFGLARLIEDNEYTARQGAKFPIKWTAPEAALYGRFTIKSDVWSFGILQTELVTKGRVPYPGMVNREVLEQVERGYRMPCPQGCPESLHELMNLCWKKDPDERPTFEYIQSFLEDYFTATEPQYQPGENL

[Cu+2].[Cu+2].[Cu+2].c1ccc(-c2csc(NCCN(CCNc3nc(-c4ccccn4)cs3)CCNc3nc(-c4ccccn4)cs3)n2)nc1.c1ccc(-c2csc(NCCN(CCNc3nc(-c4ccccn4)cs3)CCNc3nc(-c4ccccn4)cs3)n2)nc1 [[L2Cu3]6+]
% Inhibition Run 1 ([1]; YES1): 12.4%
% Inhibition Run 2 ([1]; YES1): -9%
% Inhibition, Mean ([1]; YES1): 1.7%
mean % activity ([1]; YES1): 98%
% activity ([1]; YES1, Run 1): 87.6%
% activity ([1]; YES1, Run 2): 109%
% Activation, Mean value ([2]; ERK1): 1.15%
% Inhibition Run 1 ([2]; ERK1): 6.5%
% Inhibition Run 2 ([2]; ERK1): -8.8%
% Inhibition, Mean ([2]; ERK1): -1.15%
mean % activity ([2]; ERK1): 101%
% activity ([2]; ERK1, Run 1): 93.5%
% activity ([2]; ERK1, Run 2): 108.8%
% Inhibition Run 1 [3]: 72.1%
% Inhibition Run 2 [3]: 76%
% Inhibition, Mean [3]: 74%
mean % activity [3]: 26%
% activity ([3]; Run 1): 27.9%
% activity ([3]; Run 2): 24%
% Activation, Mean value ([4]; PLK1): 12%
% Inhibition Run 1 ([4]; PLK1): -4.1%
% Inhibition Run 2 ([4]; PLK1): -19.1%
% Inhibition, Mean ([4]; PLK1): -12%
mean % activity ([4]; PLK1): 112%
% activity ([4]; PLK1, Run 1): 104.1%
% activity ([4]; PLK1, Run 2): 119.1%
% Activity Run 1 ([4]; PLK1): 104.10%
% Activity Run 2 ([4]; PLK1): 119.10%
% Inhibition Run 1 ([5]; JNK3): 62%
% Inhibition Run 2 ([5]; JNK3): 41.6%
% Inhibition, Mean ([5]; JNK3): 52%
mean % activity ([5]; JNK3): 48%
% activity ([5]; JNK3, Run 1): 38%
% activity ([5]; JNK3, Run 2): 58.4%
% Inhibition Run 1 ([6]; ASK1): 16.4%
% Inhibition Run 2 ([6]; ASK1): 15.5%
% Inhibition, Mean ([6]; ASK1): 16%
mean % activity ([6]; ASK1): 84%
% activity ([6]; ASK1, Run 1): 83.6%
% activity ([6]; ASK1, Run 2): 84.5%
% Inhibition Run 1 [7]: 49.3%
% Inhibition Run 2 [7]: 39.6%
% Inhibition, Mean [7]: 44%
mean % activity [7]: 56%
% activity ([7]; Run 2): 60.4%

CC(=O)[O-].CC(=O)[O-].CC(=O)[O-].CC(=O)[O-].CC(=O)[O-].CC(=O)[O-].[Zn+2].[Zn+2].[Zn+2].c1ccc(-c2csc(NCCN(CCNc3nc(-c4ccccn4)cs3)CCNc3nc(-c4ccccn4)cs3)n2)nc1.c1ccc(-c2csc(NCCN(CCNc3nc(-c4ccccn4)cs3)CCNc3nc(-c4ccccn4)cs3)n2)nc1 [[L2Zn3]6+]
% Inhibition, Mean ([1]; YES1): 8%
% Inhibition, Run 1 / Run 2 ([1]; YES1): 7% and 8%
mean % activity ([1]; YES1): 92%
% activity ([1]; YES1, duplicate runs): 93% and 92%
% Activation, Mean value ([2]; ERK1): 5%
% Inhibition, Mean ([2]; ERK1): -5%
mean % activity ([2]; ERK1): 105%
% activity ([2]; ERK1, duplicate runs): 115% and 95%
% Inhibition, Mean [3]: 17%
mean % activity [3]: 83%
% activity ([3]; duplicate runs): 68% and 99%
% Activation, Mean value ([4]; PLK1): 17%
% Inhibition, Mean ([4]; PLK1): -17%
% Inhibition, Run 1 / Run 2 ([4]; PLK1): -15% and -19%
mean % activity ([4]; PLK1): 117%
% Activity Run 1 ([4]; PLK1): 115.0%
% Activity Run 2 ([4]; PLK1): 119.0%
% activity ([4]; PLK1, duplicate runs): 115% and 119%
% Inhibition, Mean ([5]; JNK3): 33%
% Inhibition, Run 1 / Run 2 ([5]; JNK3): 42% and 24%
mean % activity ([5]; JNK3): 67%
% activity ([5]; JNK3, duplicate runs): 58% and 76%
% Inhibition, Mean ([6]; ASK1): 27%
% Inhibition, Run 1 / Run 2 ([6]; ASK1): 31% and 24%
mean % activity ([6]; ASK1): 73%
% activity ([6]; ASK1, duplicate runs): 70% and 76%
% Inhibition, Mean [7]: 5.35%
% Inhibition, Run 1 / Run 2 [7]: 5% and 6%
mean % activity [7]: 95%
% activity ([7]; duplicate runs): 95% and 94%
